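How tested: cells in 96-well plates exposed to compound for 48 hours at five concentrations. TGI is the concentration that stops growth completely.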
Columns and labels:
Experiment in all cases: inhibition of tumour cell growth, NCI panel, 48 h
ACHN renal = tested on: ACHN renal
NCI-H522 lung = tested on: NCI-H522 lung
SF-539 CNS = tested on: SF-539 CNS
SK-MEL-2 melanoma = tested on: SK-MEL-2 melanoma
RPMI-8226 leukemia = tested on: RPMI-8226 leukemia
A549 NSCLC = tested on: A549 NSCLC
HOP-92 NSCLC = tested on: HOP-92 NSCLC
OVCAR-8 ovarian = tested on: OVCAR-8 ovarian
EKVX NSCLC = tested on: EKVX NSCLC
HCC-2998 colon = tested on: HCC-2998 colon
SR leukemia = tested on: SR leukemia
HL-60(TB) leukemia = tested on: HL-60(TB) leukemia
SF-268 CNS = tested on: SF-268 CNS
KM12 colon = tested on: KM12 colon
A498 renal = tested on: A498 renal
HS 578T breast = tested on: HS 578T breast
NCI-H226 lung = tested on: NCI-H226 lung
NCI-H23 lung = tested on: NCI-H23 lung

Compound	TGI (ACHN renal) [µM]	TGI (NCI-H522 lung) [µM]	TGI (SF-539 CNS) [µM]	TGI (SK-MEL-2 melanoma) [µM]	TGI (RPMI-8226 leukemia) [µM]	TGI (A549 NSCLC) [µM]	TGI (HOP-92 NSCLC) [µM]	TGI (OVCAR-8 ovarian) [µM]	TGI (EKVX NSCLC) [µM]	TGI (HCC-2998 colon) [µM]	TGI (SR leukemia) [µM]	TGI (HL-60(TB) leukemia) [µM]	TGI (SF-268 CNS) [µM]	TGI (KM12 colon) [µM]	TGI (A498 renal) [µM]	TGI (HS 578T breast) [µM]	TGI (NCI-H226 lung) [µM]	TGI (NCI-H23 lung) [µM]
COc1cc(C=O)cc(C=Nc2ccc(S(N)(=O)=O)cc2)c1O	35.2	44.5	7.94	20.8	33.3	> 100	21.7	> 100	> 100	42.7	42.1	75.1	39.2	> 100	48.2	6.16	9.58	> 100
O=C(NN=C1CCCCC1)NN=C1CCCCC1								> 100						> 100		> 100		> 100
